Patent publication US6607890B1, “Mismatch-recognizing molecules” (Japan Science and Technology Corporation, priority 1999, dated 2003)

How the values were obtained:
Assay type in all cases: binding
G-A mismatched base pair = assay: DNase I footprinting titration on 5′-32P labeled 52-mer double-stranded DNA, G-A mismatched site
Experimental: (§1) Accordingly, it was examined whether such a compound having two 1,8-naphthylidien moieties can be incorporated into chains of a nucleic acid by constructing a paring with each mismatched guanine in a case when mismatched base pairing of guanine—guanine exists in a double-stranded nucleic acid. 52-mer double-stranded DNA labeled with 5′-^32P having a GC base pair, a GA mismatched base pair and a GG mismatched base pair in the double-stranded DNA was prepared. The partial sequences of the corresponding parts are illustrated as follows.
(§2) Using this double-stranded DNA, an inhibited position of DNA cleavage by DNase I was analyzed by means of DNase I (DNA hydrolase) footprinting titration in the presence of the compound of the formula (III) at various concentrations.
(§3) FIG. 2 is a graph showing a relationship between an intensity of cleaved band and a concentration of added naphthyriidine in FIG. 1. […] In FIG. 2, the abscissa indicates concentration (M) of the compound of the formula (III) added. In FIG. 2, black circle (●) in the graph indicates mismatched site of G-G, and black triangle (▴) indicates mismatched site of G-A.
(§4) A double-stranded DNA was prepared by hybridizing 5′-end ^32P labeled 52-mer DNA to form mismatched base pairs with G-G and G-A (refer to the right figures in FIG. 1).
(§5) Various concentrations of the compound obtained in example 1 were added to the double-stranded DNA, and analyzed by DNA footprinting using DNase I.
(§6) The double-stranded DNA (<4 nM strand concentration) was incubated with the compound obtained in example 1, which was adjusted to various concentrations with tris-HCl buffer (10 mM, pH 7.6) containing NaCl (100 mM) and MgCl2 (5 mM), at 4° C. for 12 hours. 0.2 U DNase I (DNA hydrolase) was added thereto and incubated at 25° C. for […]. DNA was recovered by mans of ethanol precipitation and electrophoresed using a gel containing 12% polyacrylamide and 7M urea.

G-G mismatched base pair = assay: DNase I footprinting titration on 5′-32P labeled 52-mer double-stranded DNA, G-G mismatched site
Experimental: as §1, §2, §3, §4, §5, §6

normal G-C base pair = assay: DNase I footprinting titration on 5′-32P labeled 52-mer double-stranded DNA, normal G-C site; conditions: concentration increased from 0 up to 500 μM, FIG. 1
Experimental: as §1, §2
Cleavage by DNase I (DNA hydrolase) is shown in black and inhibition in a position of the cleavage by DNase is shown in white.
as §4
Various concentrations of the compound obtained in example 1 were added to the double-stranded DNA, and analyzed by DNA footprinting using DNase I. […]

[1] = calculated from DNase I footprinting titration (FIG. 2)

## Cc1ccc2ccc(NC(=O)CCNCCC(=O)Nc3ccc4ccc(C)nc4n3)nc2n1 [formula (III), dinaphthylidinamide]
G-A mismatched base pair; DNase I cleavage, FIG. 2
  concentration from which the inhibitory action against cleavage initiates in the G-A mismatched site: approximately 10^−6 M
G-A mismatched base pair; at around (500 μM) compound
  inhibition of the cleavage in the G-A mismatched site: about 90%
G-A mismatched base pair; [1]
  binding constant to the mismatched base G-A [Ka (GAmis)]: 16300 M⁻¹
G-G mismatched base pair; DNase I cleavage, FIG. 2
  concentration at which the cleavage in the G-G mismatched site is inhibited almost completely: ≥ 10^−5 M
G-G mismatched base pair; G-G versus G-A mismatch
  ratio of both binding constants [(Ka (GGmis))/(Ka (GAmis))]: 696
G-G mismatched base pair; [1]
  binding constant to the mismatched base G-G [Ka (GGmis)]: 1.13e+07 M⁻¹
Normal G-C base pair
  effect on DNase I cleavage at the normal G-C base pairing: cleavage by DNase I occurs
